The source of these data is US11312705B2, “Heteroaryl[4,3-C]pyrimidine-5-amine derivative, preparation method therefor, and medical uses thereof” (Jiangsu Hengrui Medicine Co., Ltd., priority 2017, dated 2022).

SMILES strings stand for the structures.

Assay [1] addresses adenosine A2b receptor (A2bR) (Homo sapiens (Human), UniProt P29275). The assay is described as follows: Inhibition of adenosine A2b receptor cAMP signaling pathway (HTRF cAMP, CHO-K1/A2bR cells). The class given is cell-based. As to conditions: Table 3; for IC50: CHO-K1/A2bR cells, ethyl carbazole 1 μM, cAMP HTRF; for IC50 ratio (A2bR/A2aR): selectivity A2bR over A2aR. An excerpt: (§1) Test Example 1. Determination of the inhibition activity of the compounds of the present invention on the adenosine A2a receptor (A2aR) cAMP signaling pathway, the adenosine A2b receptor (A2bR) cAMP signaling pathway, the adenosine A1 receptor (A1R) cAMP signaling pathway and the adenosine A3 receptor (A3R) cAMP signaling pathway.
(§2) The inhibition activity of the compounds of the present invention on the adenosine A2a receptor cAMP signaling pathway, the adenosine A2b receptor cAMP signaling pathway, the adenosine A1 receptor cAMP signaling pathway and the adenosine A3 receptor cAMP signaling pathway was determined by the following method. The experimental method is briefly described as follows:
2.4 Adenosine A2b receptor (A2bR)
CHO-K1/A2bR cells were cultured in DMEM/F12 medium containing 10% fetal bovine serum and 1 mg/ml G418. The cells were digested with the cell separation buffer during the experiment. The cells were resuspended in the balanced salt buffer containing 20 mM HEPES and 0.1% bovine serum albumin and counted, and the cell density was adjusted to 10^6 cells/ml. In the 384-well plate, each well was added with 5 μl of cell suspension, and 2.5 μl of test compound (4× concentration) formulated with the balanced salt buffer containing 20 mM HEPES, 0.1% bovine serum albumin, 54 μM rolipram and 2.7 U/ml adenosine deaminase, and the plate was incubated at room temperature for 30 minutes. Each well was then added with 2.5 μl of […] (4× concentration) (Torcis, 1691/10) formulated with the balanced salt buffer containing 20 mM HEPES, 0.1% bovine serum albumin, 54 μM rolipram and 2.7 U/ml adenosine deaminase, and the plate was incubated at room temperature for 30 minutes. The final concentrations of the compounds were: 100000, 10000, 1000, 100, 10, 1, 0.1 and 0 nM. The final concentration of […] was 1 μM. Intracellular cAMP concentration was detected with the cAMP dynamic 2 kit. cAMP-d2 and Anti-cAMP-Eu-Cryptate were diluted respectively with the cAMP lysis buffer at a ratio of 1:4. Each well was added with 5 μl of diluted cAMP-d2, followed by addition of 5 μl of diluted Anti-cAMP-Eu-Cryptate, and the plate was incubated at room temperature in the dark for 1 hour. The HTRF signal values were read by the PHERAstar multi-function microplate reader.

Assay [2] addresses adenosine A2a receptor (A2aR) (Homo sapiens (Human), UniProt P29274). The assay is described as follows: Inhibition of adenosine A2a receptor cAMP signaling pathway (HTRF cAMP, CHO-K1/A2aR cells). In kind it is cell-based.
Text: as §1, §2
2.1 Adenosine A2a Receptor
CHO-K1/A2aR cells were cultured in DMEM/F12 medium containing 10% fetal bovine serum and 800 μg/ml bleomycin. The cells were digested with the cell separation buffer during the experiment. The cells were resuspended in the balanced salt buffer containing 20 mM HEPES and 0.1% bovine serum albumin and counted, and the cell density was adjusted to 10^6 cells/ml. In the 384-well plate, each well was added with 5 μl of cell suspension, and 2.5 μl of test compound (4× concentration) formulated with the balanced salt buffer containing 20 mM HEPES, 0.1% bovine serum albumin, 54 μM rolipram and 2.7 U/ml adenosine deaminase, and the plate was incubated at room temperature for 30 minutes. Each well was then added with 2.5 μl of […] (4× concentration) formulated with the balanced salt buffer containing 20 mM HEPES, 0.1% bovine serum albumin, 54 μM rolipram and 2.7 U/ml adenosine deaminase, and the plate was incubated at room temperature for 30 minutes. The final concentrations of the compounds were: 10000, 2000, 400, 80, 16, 3.2, 0.64, 0.128, 0.0256, 0.00512, and 0.001024 nM. The final concentration of […] was 20 nM. Intracellular cAMP concentration was detected with the cAMP dynamic 2 kit. cAMP-d2 and Anti-cAMP-Eu-Cryptate were diluted respectively with the cAMP lysis buffer at a ratio of 1:4. Each well was added with 5 μl of diluted cAMP-d2, followed by addition of 5 μl of diluted Anti-cAMP-Eu-Cryptate, and the plate was incubated at room temperature in the dark for 1 hour. The HTRF signal values were read by the PHERAstar multi-function microplate reader.

adenosine A2a receptor (A2aR), sequence (P29274 whole entry): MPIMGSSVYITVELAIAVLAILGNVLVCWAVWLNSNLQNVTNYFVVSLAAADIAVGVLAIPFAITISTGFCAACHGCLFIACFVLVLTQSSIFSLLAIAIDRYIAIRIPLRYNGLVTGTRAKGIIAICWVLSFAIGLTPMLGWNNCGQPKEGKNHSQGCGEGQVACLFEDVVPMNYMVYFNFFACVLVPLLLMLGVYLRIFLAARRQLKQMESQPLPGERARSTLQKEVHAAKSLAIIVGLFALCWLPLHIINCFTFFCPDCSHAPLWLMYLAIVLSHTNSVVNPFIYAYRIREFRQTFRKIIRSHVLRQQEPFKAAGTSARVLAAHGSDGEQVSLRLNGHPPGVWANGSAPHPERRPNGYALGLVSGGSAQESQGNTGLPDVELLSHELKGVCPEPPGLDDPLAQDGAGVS
adenosine A2b receptor (A2bR), sequence (P29275 whole entry): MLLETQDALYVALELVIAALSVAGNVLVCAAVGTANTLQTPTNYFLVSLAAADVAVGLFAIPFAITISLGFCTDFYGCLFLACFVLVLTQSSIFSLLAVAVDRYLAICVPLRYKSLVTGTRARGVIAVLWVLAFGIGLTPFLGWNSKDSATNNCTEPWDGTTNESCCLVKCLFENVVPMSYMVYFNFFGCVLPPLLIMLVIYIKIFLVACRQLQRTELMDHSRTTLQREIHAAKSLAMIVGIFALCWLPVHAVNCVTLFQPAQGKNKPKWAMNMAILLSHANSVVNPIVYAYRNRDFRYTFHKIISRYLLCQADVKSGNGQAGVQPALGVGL

On to `Cc1cc(-c2c(-c3ccccc3)nc(N)n3cnnc23)cc(C(F)(F)F)n1` [Example 1, 8-(2-Methyl-6-(trifluoromethyl)pyridin-4-yl)-7-phenyl-[1,2,4]triazolo[4,3-c]pyrimidin-5-amine], for which the IC50 amounted to 58.5 nM in assay [1]; 0.23 nM in assay [2] (Table 1, ethyl carbazole 20 nM); 0.23 nM in assay [2] (Table 3, ethyl carbazole 20 nM). The “IC50 ratio (A2bR/A2aR)” value in assay [1] is 254.
As for `Nc1nc(-c2ccccc2)c(-c2cc(F)c3[nH]ncc3c2)c2nncn12` [Example 6, 8-(7-Fluoro-1H-indazol-5-yl)-7-phenyl-[1,2,4]triazolo[4,3-c]pyrimidin-5-amine], the IC50 in assay [2] (Table 1, ethyl carbazole 20 nM) was 0.14 nM. That is a sub-nanomolar value.
As for `Cc1cc(-c2c(-c3ccc(C)o3)nc(N)n3cnnc23)cc(C(F)(F)F)n1` [Example 8, 8-(2-Methyl-6-(trifluoromethyl)pyridin-4-yl)-7-(5-methylfuran-2-yl)-[1,2,4]triazolo[4,3-c]pyrimidin-5-amine], the IC50 in assay [1] turned out to be 203 nM; in assay [2] (Table 1, ethyl carbazole 20 nM), 0.18 nM; in assay [2] (Table 3, ethyl carbazole 20 nM), 0.18 nM. In assay [1], the “IC50 ratio (A2bR/A2aR)” value is given as 1125.
In the case of `Nc1nc(-c2ccccc2)c(-c2cc(C(F)(F)F)c3[nH]ncc3c2)c2nncn12` [Example 9, 7-Phenyl-8-(7-(trifluoromethyl)-1H-indazol-5-yl)-[1,2,4]triazolo[4,3-c]pyrimidin-5-amine], 0.25 nM corresponded to half-maximal inhibition in assay [2] (Table 1, ethyl carbazole 20 nM) (IC50). This counts as sub-nanomolar.
As to `Nc1nc(-c2ccccc2)c(-c2ccc3[nH]ncc3c2)c2nncn12` [Example 10, 8-(1H-indazol-5-yl)-7-phenyl-[1,2,4]triazolo[4,3-c]pyrimidin-5-amine], the IC50 was found to be 91 nM in assay [1]; 0.26 nM in assay [2] (Table 1, ethyl carbazole 20 nM); 0.26 nM in assay [2] (Table 3, ethyl carbazole 20 nM). Also, the “IC50 ratio (A2bR/A2aR)” value in assay [1] amounted to 350.
The molecule `Cc1cc(-c2c(-c3ccccc3)nc(N)n3cnnc23)ccn1` [Example 12, 8-(2-Methylpyridin-4-yl)-7-phenyl-[1,2,4]triazolo[4,3-c]pyrimidin-5-amine] showed an IC50 in assay [2] (Table 1, ethyl carbazole 20 nM) of 0.63 nM.
The molecule `Cc1cc(-c2c(-c3ccc(Cl)cc3)nc(N)n3cnnc23)cc(C(F)(F)F)n1` [Example 14, 7-(4-Chlorophenyl)-8-(2-methyl-6-(trifluoromethyl)pyridin-4-yl)-[1,2,4]triazolo[4,3-c]pyrimidin-5-amine] registered an IC50 in assay [2] (Table 1, ethyl carbazole 20 nM) of 1.56 nM.
With `Cc1cc(-c2c(-c3ccc(F)cc3)nc(N)n3cnnc23)cc(Cl)n1` [Example 15, 8-(2-Chloro-6-methylpyridin-4-yl)-7-(4-fluorophenyl)-[1,2,4]triazolo[4,3-c]pyrimidin-5-amine], the IC50 in assay [1] is 98.9 nM; in assay [2] (Table 1, ethyl carbazole 20 nM), 0.17 nM; in assay [2] (Table 3, ethyl carbazole 20 nM) it was 0.17 nM. For the same molecule, in assay [1], the “IC50 ratio (A2bR/A2aR)” value was 582.
Regarding `Cc1cc(-c2c(-c3ccc(F)cc3)nc(N)n3cnnc23)cc(C(F)(F)F)n1` [Example 16, 7-(4-Fluorophenyl)-8-(2-methyl-6-(trifluoromethyl)pyridin-4-yl)-[1,2,4]triazolo[4,3-c]pyrimidin-5-amine], the IC50 in assay [1] is 122 nM; in assay [2] (Table 1, ethyl carbazole 20 nM), 0.63 nM; in assay [2] (Table 3, ethyl carbazole 20 nM) it was 0.63 nM. Besides, the “IC50 ratio (A2bR/A2aR)” value in assay [1] is 194.
As for `Cc1cc(-c2c(-c3ccccc3)nc(N)n3ccnc23)cc(C(F)(F)F)n1` [Example 17, 8-(2-Methyl-6-(trifluoromethyl)pyridin-4-yl)-7-phenylimidazo[1,2-c]pyrimidin-5-amine], in assay [2] (Table 1, ethyl carbazole 20 nM), half-maximal inhibition (IC50) was put at 0.75 nM.
The same measure, in the same setting: the value for `Cc1cc(-c2c(-c3ccccc3)nc(N)n3cc(C)nc23)cc(C)n1` [Example 21, 8-(2,6-Dimethylpyridin-4-yl)-2-methyl-7-phenylimidazo[1,2-c]pyrimidin-5-amine] was 2.46 nM; that for `Nc1nc(-c2ccccc2)c(-c2cc(Cl)nc(C(F)(F)F)c2)c2nncn12` [Example 23, 8-(2-Chloro-6-(trifluoromethyl)pyridin-4-yl)-7-phenyl-[1,2,4]triazolo[4,3-c]pyrimidin-5-amine] was 0.23 nM.
The same measure, in the same setting: the value for `Cc1cc(-c2c(-c3ccccc3)nc(N)n3ccnc23)cc(Cl)n1` [Example 24, 8-(2-Chloro-6-methylpyridin-4-yl)-7-phenylimidazo[1,2-c]pyrimidin-5-amine] was 0.27 nM; that for `COc1cc(-c2c(-c3ccccc3)nc(N)n3cnnc23)cc(C)n1` [Example 25, 8-(2-Methoxy-6-methylpyridin-4-yl)-7-phenyl-[1,2,4]triazolo[4,3-c]pyrimidin-5-amine] was 0.32 nM; that for `CCc1cc(-c2c(-c3ccccc3)nc(N)n3cnnc23)cc(C)n1` [Example 26, 8-(2-Ethyl-6-methylpyridin-4-yl)-7-phenyl-[1,2,4]triazolo[4,3-c]pyrimidin-5-amine] was 0.42 nM.
Same read-out and setting: the value for `Cc1cc(-c2c(-c3ccccc3)nc(N)n3ccnc23)cc(C)n1` [Example 31, 8-(2,6-Dimethylpyridin-4-yl)-7-phenylimidazo[1,2-c]pyrimidin-5-amine] was 0.93 nM; that for `Cc1cc(-c2c(-c3ccc(F)cc3)nc(N)n3ccnc23)cc(C)n1` [Example 32, 8-(2,6-Dimethylpyridin-4-yl)-7-(4-fluorophenyl)imidazo[1,2-c]pyrimidin-5-amine] was 1 nM.
In assay [2] (Table 1, ethyl carbazole 20 nM), `Cc1ccc(-c2nc(N)n3cnnc3c2-c2cc(C)nc(Cl)c2)cc1` [Example 35, 8-(2-Chloro-6-methylpyridin-4-yl)-7-(p-tolyl)-[1,2,4]triazolo[4,3-c]pyrimidin-5-amine] had an IC50 of 0.18 nM. Against the preceding molecule, the IC50 is about 5.6-fold lower.
The same measure, in the same setting: the value for `Cc1cc(-c2c(-c3ccc(Cl)cc3)nc(N)n3cnnc23)cc(Cl)n1` [Example 36, 8-(2-Chloro-6-methylpyridin-4-yl)-7-(4-chlorophenyl)-[1,2,4]triazolo[4,3-c]pyrimidin-5-amine] was 3.47 nM; that for `Nc1nc(-c2ccccc2)c(-c2ccncc2)c2nncn12` [Example 37, 7-Phenyl-8-(pyridin-4-yl)-[1,2,4]triazolo[4,3-c]pyrimidin-5-amine] was 2.11 nM.
The molecule `Nc1nc(-c2ccccc2)c(-c2ccnc(Cl)c2)c2nncn12` [Example 38, 8-(2-Chloropyridin-4-yl)-7-phenyl-[1,2,4]triazolo[4,3-c]pyrimidin-5-amine] had an IC50 in assay [2] (Table 1, ethyl carbazole 20 nM) of 2.18 nM.
On to `Cc1cc(-c2c(-c3ccc(F)cc3F)nc(N)n3cnnc23)cc(C)n1` [Example 40, 7-(2,4-Difluorophenyl)-8-(2,6-dimethylpyridin-4-yl)-[1,2,4]triazolo[4,3-c]pyrimidin-5-amine], for which the IC50 in assay [2] (Table 1, ethyl carbazole 20 nM) stood at 1.75 nM.
Still for that read-out and setting: the value for `CC(C)n1cc(-c2c(-c3ccccc3)nc(N)n3cnnc23)ccc1=O` [Example 43, 5-(5-Amino-7-phenyl-[1,2,4]triazolo[4,3-c]pyrimidin-8-yl)-1-isopropylpyridin-2(1H)-one] was 0.2 nM; that for `Cc1cc(-c2c(-c3ccc(Cl)cc3)nc(N)n3cnnc23)cc(CF)n1` [Example 53, 7-(4-Chlorophenyl)-8-(2-(fluoromethyl)-6-methylpyridin-4-yl)-[1,2,4]triazolo[4,3-c]pyrimidin-5-amine] was 0.35 nM.
In assay [2] (Table 1, ethyl carbazole 20 nM), `Cc1cc(-c2c(-c3ccc(Cl)cc3)nc(N)n3cnnc23)cc(C)n1` [Example 54, 7-(4-Chlorophenyl)-8-(2,6-dimethylpyridin-4-yl)-[1,2,4]triazolo[4,3-c]pyrimidin-5-amine] came in with an IC50 of 0.48 nM.
